Patent US20040147595A1, “Biofilm degrading or sloughing compositions and methods” (priority 2001, published 2004)

Assays:
[1] = tested on: OHHL induced LuxR dependent expression of GFP; test: Quantitative furanone inhibition of the LuxR-PluxI-gfp(ASV) quorum sensor in E. coli MT102 (pJBA89); assay type: cell-based, Escherichia coli; conditions: gradient of furanone concentration lowering RFU to 40% versus OHHL concentration (5-100 nM)
Excerpt: To analyse the AHL antagonist activity of the halogenated furanones we tested the compounds for their ability to inhibit 3oxo-C6-HSL (OHHL) induced LuxR dependent expression of green fluorescent protein (GFP) from a Pgfp(ASV) fusion in the AHL monitor strain E. coli MT102 harbouring pJBA89 (Andersen et al., 2001).
The medium used is minimal ABT containing 0.5% glucose and 0.5% Casamino Acids. In growing cultures of the AHL monitor strain E. coli Mt102 (pJBA89) encoding […] and a P-gfp(ASV) fusion, GFP(ASV) is produced immediately upon OHHL addition specifically from the LuxR controlled P-gfp(ASV) fusion gene. The sensitivity is high (responsive to as little as 3 nm OHHL) and due to the instability built into the GFP (ASV) variant there is no background production of green fluoroscence (Andersen et al., 2001). GFP expression from the AHL monitor strain E. coli MT102 (pJBA89) and the control strain MT102 harbouring the lacl^q, Plas-gfp(ASV) IPTG inducible expression system pMH197 was quantified in the following way. Overnight cultures were diluted four fold in fresh medium and incubated for one hour at 30° C. while OHHL and furanone compounds in the required concentrations were mixed in the wells of microtiter dishes. […] When absolute values were required, green fluoroscence was measured on a fluorometer (model RF-1501; Shimadzu, Tokyo, Japan) act at an excitation wavelength of 475 nm and emission detection at 515 nm. To establish a correlation between the colour code of the ARGUS-50 captured images and green fluorescence, both colour and relative fluorescence units (RFU), were determined for a dilution series of an E. coli MT102 (pJBA89) culture which had been incubated with […]. […]
From the second plot, the furanone concentration reducing the relative activity to 40% (ID60) is determined for each OHHL concentration. […]
To enable easy comparison of the strength of the furanones, an inhibition index (IIX40) is calculated for each furanone compound. […]

bacterial growth = test: Bacterial growth inhibition at the concentrations tested in the quorum sensor assay; assay type: cell-based
Excerpt: The natural compound 2 has an IIX40 0.75 where as compound 30 and […] have IIX40 of 0.01 and 0.51 respectively.

[2] = tested on: OHHL induced LuxR dependent expression of GFP; conditions: E. coli MT102 (pJBA89); cited from earlier work
[3] = tested on: V. fisheri lux quorum sensing system (LuxR); test: V. fisheri luxR PluxI-gfp(ASV) reporter in PAO-JP2 biofilm; assay type: cell-based, Pseudomonas aeruginosa; conditions: 250 nM OHHL
Experimental: P. aeruginosa biofilms. Biofilms were grown at 30° C. in three-dimensional flow cells (Christensen et al., 1999) with individual channel dimensions of 0.3×4×40 mm supplied With ABt minimal medium supplemented with 2% LB. The flow system was assembled and prepared as described by Christensen et al. (1999). The substratum consisted of a microscope glass coverslip (Knittel 24×50 mm st1, Knittel Glaser, Braunschweig, Germany). Cultures for inoculation of the flow channels were prepared in the following way: P. aeruginosa strains were streaked on LB plates with the appropriate antibiotics and incubated for 24 h at 37° C. From each plate a single colony was used for inoculation of 10 ml ABt with 10% LB. The cultures were grown at, 30° C. for 18 h before they were diluted to an OD600 nm of 0.1 in sterile 0.9% NaCl and used for inoculation of the flow channels. Medium flow was kept at a constant rate of 3 mL/h, equivalent to a mean flow velocity of 0.7 mm/s, using a Watson-Marlow 205S peristaltic pump (Watson-Marlow, Falmouth, England). Biofilms were grown for 24 hours before being shifted to media containing AHL and furanone.
Scanning confocal laser microscopy (SCLM). Microscopic inspection and image acquisition were performed an a scanning confocal laser microscope (model TCS4D, Leica Lasertechnik GmbH, Heldelberg, Germany) equipped with a 63×/1.32-0.6 oil objective. The microscope was equipped with a motorized and programmable xy-stage, which was used for monitoring single colonies during the biofilm experiments. At the beginning of each online experiment, the microscope was programmed to track single randomly selected microcolonies; the sensitivity of photo multipliers and the laser intensity were adjusted and thereafter kept constant through out the duration of the experiments. Image scanning was carried out using the 488 nm and 568 nm lines of an Ar/Kr laser for detection of Gfp and Rfp, respectively. Visualization of captured images was performed using the IMARIS software package (Bitplane AG, Zúrich, Switzerland) running on a Silicon Graphics Indigo 2 workstation (Silicon Graphics, Mountain View, Calif. USA).
Repression of LuxR-activated quorum sensing controlled gene transcription. We speculated that the AHL-antagonstic properties of furanone 56 was specific to the P. aeruginosa las quorum sensing system. To test this, a previously published quorum sensing reporter based on the Vibro fisherf luxR gene and Pluxl-gfp(ASV) (Anderson at al, 2001; Wu et al, 2000) was transferred to PAO-JP2.

| SMILES | inhibition index (IIX40) [1] | concentration slightly above which growth was inhibited (bacterial growth) | lowest OHHL concentration the monitor strain responds to [2] [nm] | green fluorescence of biofilm [3] |
| --- | --- | --- | --- | --- |
| O=C1C=C(Br)/C(=C/Br)O1 [Compound 30] | 0.01 mole of furanone per mmole of | above 10 nm |  |  |
| CCCC(=O)CC(=O)N[C@H]1CCOC1=O [OHHL, N-[3-oxo-hexanoyl]-L-homoserine lactone, reference compound] |  |  | 3 | developed within one hour |
